Experimental data published in US12552753B2, “Methods and compositions for targeting Tregs using CCR8 inhibitors” (Nanjing Immunophage Biomedical Co., Ltd., priority 2020, dated 2026).
Structures can show the parent of a compound that is named as a salt.

target: CCR8 (Homo sapiens, UniProt P51685); experiment: Tango assay (Tango-CCR8-Gal4-CHO-K1 cells, CCL1-stimulated, ONE-Glo luminescence); settings: Tango Assay IC50, Inhibition of CCR8 Tango cell in vitro
Sequence (P51685 whole entry, the tested form may be a part): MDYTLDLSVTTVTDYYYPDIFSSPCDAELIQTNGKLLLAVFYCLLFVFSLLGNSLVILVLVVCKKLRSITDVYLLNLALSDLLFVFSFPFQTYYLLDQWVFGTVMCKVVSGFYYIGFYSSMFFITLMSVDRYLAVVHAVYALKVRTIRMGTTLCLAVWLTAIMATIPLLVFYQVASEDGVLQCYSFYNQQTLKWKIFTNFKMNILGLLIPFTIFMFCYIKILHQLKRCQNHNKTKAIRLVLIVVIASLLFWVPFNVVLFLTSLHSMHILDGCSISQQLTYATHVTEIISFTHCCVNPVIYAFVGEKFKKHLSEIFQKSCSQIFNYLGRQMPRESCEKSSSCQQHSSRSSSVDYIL

Row | IC50 [nM] | SMILES
1 | 458 | Cc1ccccc1C(=O)Nc1ccc(S(=O)(=O)NC(C)C2CCCN(C(=O)[C@H](C)N)C2)c2ccccc12 (single isomer, unassigned) [Compound 158C]
2 | 102 | Cc1cc(S(=O)(=O)N[C@H](C)C2CC[N+](C)(C)CC2)ccc1NC(=O)c1ccccc1C [Compound 301, (R)-1,1-dimethyl-4-(1-((3-methyl-4-(2-methylbenzamido)phenyl)sulfonamido)ethyl)piperidin-1-ium.chloride.]
3 | > 100000 | Cc1cc(S(=O)(=O)N[C@H](C)C2CCNCC2)ccc1NC(=O)c1cncs1 [Compound 252A, (R)-N-(2-methyl-4-(N-(1-(piperidin-4-yl)ethyl)sulfamoyl)phenyl)thiazole-5-carboxamide hydrochloride]
4 | > 10000 | Cc1ccccc1C(=O)Nc1ccc(S(=O)(=O)NC(=O)c2cccc(N(C)C)c2)c2ccccc12 [Compound 10, N-(4-(N-(3-(dimethylamino)benzoyl)sulfamoyl)naphthalen-1-yl)-2-methylbenzamide]
5 | > 10000 | CC(NS(=O)(=O)c1ccc(-c2nn[nH]n2)c2ccccc12)C1CCCCC1 (stereo not shown) [Compound 150, N-(1-cyclohexylethyl)-4-(2H-tetrazol-5-yl)naphthalene-1-sulfonamide]
6 | 1.5 | Cc1ccccc1C(=O)Nc1c(Cl)cc(S(=O)(=O)N[C@H](C)C2CCNCC2)cc1Cl [Compound 305, (R)-N-(2,6-dichloro-4-(N-(1-(piperidin-4-yl)ethyl)sulfamoyl)phenyl)-2-methylbenzamide hydrochloride]
7 | 26 | Cc1ccccc1C(=O)Nc1ccc(S(=O)(=O)NC2CCOc3ccccc32)c2ccccc12 (stereo not shown) [Compound 29, N-(4-(N-(chroman-4-yl)sulfamoyl)naphthalen-1-yl)-2-methylbenzamide]
8 | 11 | Cc1ccccc1C(=O)Nc1ccc(S(=O)(=O)N[C@H](C)C2CCN(C)CC2)c(F)c1Cl [Compound 264, (R)-N-(2-chloro-3-fluoro-4-(N-(1-(1-methylpiperidin-4-yl)ethyl)sulfamoyl)phenyl)-2-methylbenzamide]
9 | > 100000 | Cc1ccccc1CNc1ccc(S(=O)(=O)N[C@H](C)C2CCN(C)CC2)cc1C [Compound 229, (R)-3-methyl-4-((2-methylbenzyl)amino)-N-(1-(1-methylpiperidin-4-yl)ethyl)benzenesulfonamide]
10 | > 10000 | CC(NS(=O)(=O)c1cccc(N2CCCCC2C(=O)O)c1)C1CCCCC1 (stereo not shown) [Compound 153, 1-(3-(N-(1-cyclohexylethyl)sulfam-oyl)phenyl)piperidine-2-carboxylic acid]
11 | 369 | Cc1cc(S(=O)(=O)NCC2CCN(C)CC2)ccc1NC(=O)c1ccccc1C [Compound 238, 2-methyl-N-(2-methyl-4-(N-((1-methylpiperidin-4-yl)methyl)sulfa-moyl)phenyl)benza-mide]
12 | 1020 | Cc1ccccc1C(=O)Nc1ccc(S(=O)(=O)NC(C)C2CCCN(C(=O)[C@H](C)N)C2)c2ccccc12 (single isomer, unassigned) [Compound 158D]
13 | > 100000 | Cc1cc(S(=O)(=O)N[C@@H](C)C2CCN(C)CC2)c(F)cc1NC(=O)c1ccccc1C [Compound 262A, (S)-N-(5-fluoro-2-methyl-4-(N-(1-(1-methylpiperidin-4-yl)ethyl)sulfamoyl)phenyl)-2-methylbenzamide]
14 | > 10000 | Cc1ccccc1C(=O)Nc1ccc(S(=O)(=O)NC2CCc3n[nH]cc3C2)c2ccccc12 (stereo not shown) [Compound 52, 2-methyl-N-(4-(N-(4,5,6,7-tetrahydro-2H-indazol-5-yl)sulfamoyl)naphthalen-1-yl)benzamide]
15 | 279 | Cc1ccccc1C(=O)N(C)c1ccc(S(=O)(=O)N[C@H](C)C2CCNCC2)cc1C [Compound 231A, (R)-N,2-dimethyl-N-(2-methyl-4-(N-(1-(piperidin-4-yl)ethyl)sulfamoyl)phenyl)benzamide hydrochloride]
16 | 41 | Cc1cc(S(=O)(=O)N[C@H](C)C2CCN(CCO)CC2)ccc1NC(=O)c1ccccc1C [Compound 205, (R)-N-(4-(N-(1-(1-(2-hydroxyethyl)piperidin-4-yl)ethyl)sulfamoyl)-2-methylphenyl)-2-methylbenzamide]
17 | 2 | Cc1cc(S(=O)(=O)N[C@H](C)C2CCN(C)CC2)ccc1NC(=O)c1cccc2c1CCC2 [Compound 296, (R)-N-(2-methyl-4-(N-(1-(1-methylpiperidin-4-yl)ethyl)sulfamoyl)phenyl)-2,3-dihydro-1H-indene-4-carboxamide]
18 | 1400 | Cc1cc(S(=O)(=O)NC(CO)C2CCNCC2)ccc1NC(=O)c1ccccc1C (stereo not shown) [Compound 234, N-(4-(N-(2-hydroxy-1-(piperidin-4-yl)ethyl)sulfamoyl)-2-methylphenyl)-2-methylbenzamide]
19 | > 100000 | Cc1ccccc1C(=O)Nc1cc(F)c(S(=O)(=O)N[C@@H](C)C2CCNCC2)cc1Cl [Compound 242B, (S)-N-(2-chloro-5-fluoro-4-(N-(1-(piperidin-4-yl)ethyl)sulfamoyl)phenyl)-2-methylbenzamide hydrochloride]
20 | > 100000 | Cc1cc(S(=O)(=O)N[C@H](C)C2CCN(C(=O)OC(C)(C)C)CC2)c(C)cc1NC(=O)c1ccccc1C [Compound 285, tert-butyl (R)-4-(1-((2,5-dimethyl-4-(2-methylbenzamido)phenyl)sulfonamido)ethyl)piperidine-1-carboxylate]
21 | 30 | Cc1cc(S(=O)(=O)NC(C)C2CCNCC2)ccc1NC(=O)c1ccccc1Cl (stereo not shown) [Compound 255, 2-chloro-N-(2-methyl-4-(N-(1-(piperidin-4-yl)ethyl)sulfamoyl)phenyl)benzamide]
22 | > 10000 | CCCC(=O)N1CCC(NS(=O)(=O)c2ccc(Nc3ncnc4ccccc34)cc2)CC1 [Compound 120, N-(1-butyrylpiperidin-4-yl)-4-(quinazolin-4-ylamino)benzenesulfon-amide]
23 | > 100000 | Cc1cc(S(=O)(=O)N[C@H](C)C2CCNCC2)ccc1NC(=O)c1ccncc1C [Compound 251A, (R)-3-methyl-N-(2-methyl-4-(N-(1-(piperidin-4-yl)ethyl)sulfamoyl)phenyl)isonicotinamide hydrochloride]
24 | > 10000 | CC(=O)Nc1ccccc1C(C)NS(=O)(=O)c1ccc(NC(=O)c2ccccc2C)c2ccccc12 (stereo not shown) [Compound 125, N-(4-(N-(1-(2-acetamidophenyl)ethyl)sulfamoyl)naphthalen-1-yl)-2-methylbenzamide]
25 | 105 | Cc1cc(S(=O)(=O)N[C@H](C)C2CCNCC2)ccc1NC(=O)c1ccsc1C [Compound 250A, (R)-2-methyl-N-(2-methyl-4-(N-(1-(piperidin-4-yl)ethyl)sulfamoyl)phenyl)thiophene-3-carboxamide hydrochloride]

Row | SMILES | IC50 [nM]
26 | Cc1ccccc1C(=O)Nc1ccc(S(=O)(=O)N[C@H](C)C2CCNCC2)cc1Cl [Compound 165A, (R)-N-(2-chloro-4-(N-(1-(piperidin-4-yl)ethyl)sulfamoyl)phen-yl)-2-methylbenzamide hydrochloride] | 12

same assay, conditions: read-out: Tango Assay IC50, Inhibition of CCR8 Tango cell in vitro

Row | IC50 [nM] | SMILES
27 | > 10000 | Cc1ccccc1C(=O)Nc1ccc(S(=O)(=O)NC(C)C2CCCN(C(=O)[C@H](C)NC(=O)OC(C)(C)C)C2)c2ccccc12 (single isomer, unassigned) [Compound 157B]
28 | 1 | Cc1ccccc1C(=O)Nc1c(C)cc(S(=O)(=O)N[C@H](C)C2CCN(C)CC2)cc1Cl [Compound 220, (R)-N-(2-chloro-6-methyl-4-(N-(1-(1-methylpiperidin-4-yl)ethyl)sulfamoyl)phenyl)-2-methylbenzamide]
